In ChEMBL document CHEMBL1629620 (Antimicrob Agents Chemother, 2009):

The molecules below were run on Vaccinia virus (assay: Antiviral activity against J2R gene deficient Vaccinia virus harboring VVTK::luc infected in HFF assessed as reduction of plaque formation after 3 days). Details: Orthopoxvirus vaccinia, 72 h.
Assay type: functional, organism-based

| SMILES | EC50 [µM] |
| --- | --- |
| O=c1[nH]c(=O)n([C@H]2C[C@H](O)[C@@H](CO)S2)cc1I | 0.3 |
| Nc1ccn(C[C@@H](CO)OCP(=O)(O)O)c(=O)n1.O.O [CIDOFOVIR] | 9.4 |
| O=c1[nH]c(=O)n([C@H]2C[C@H](O)[C@@H](CO)O2)cc1I [IDOXURIDINE] | 7.1 |
